Test results: PubChem BioAssay AID2060886 (Molecular Pharmacology Branch, DTP, NCI, 2025)
pIC50: −log10 of the molar value. Values belong to the molecule of their own block, whether it stands above or below them.

Tested on: 653999-131-R-J2-PDC complex spheroids, growth inhibition
Test: Anticancer human tumor 653999-131-R-J2-PDC patient-derived lung adenocarcinoma cell line growth inhibition [RAS]
Conditions: for pIC50: curve of first compound; for viability, T/C: stronger effect = lower value
Summary of the method: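 Agents were tested in combination matrices in half-log decrements from a top concentration at or near clinical Cmax (10 microM if undetermined). Targets were multi-cell spheroids of tumour lines plus HUVEC and MSC stromal cells.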

[1] = second compound 0.0316 µM, first compound 0.0316 µM
[2] = second compound 0.0316 µM, first compound 0.1 µM
[3] = second compound 0.0316 µM, first compound 0.316 µM
[4] = second compound 0.0316 µM, first compound 1 µM
[5] = second compound 0.0316 µM, first compound 3.16 µM
[6] = second compound 0.0316 µM, first compound 10 µM
[7] = second compound 0.1 µM, first compound 0.0316 µM
[8] = second compound 0.1 µM, first compound 0.1 µM
[9] = second compound 0.1 µM, first compound 0.316 µM
[10] = second compound 0.1 µM, first compound 1 µM
[11] = second compound 0.1 µM, first compound 3.16 µM
[12] = second compound 0.1 µM, first compound 10 µM
[13] = second compound 0.316 µM, first compound 0.0316 µM
[14] = second compound 0.316 µM, first compound 0.1 µM
[15] = second compound 0.316 µM, first compound 0.316 µM
[16] = second compound 0.316 µM, first compound 1 µM
[17] = second compound 0.316 µM, first compound 3.16 µM
[18] = second compound 0.316 µM, first compound 10 µM
[19] = second compound 1 µM, first compound 0.0316 µM
[20] = second compound 1 µM, first compound 0.1 µM
[21] = second compound 1 µM, first compound 0.316 µM
[22] = second compound 1 µM, first compound 1 µM
[23] = second compound 1 µM, first compound 3.16 µM
[24] = second compound 1 µM, first compound 10 µM
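Further: spheroids exposed to the agents for seven days before the readout.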

- pIC50 (second compound 0.0316 µM): 7.50
- pIC50 (second compound 0.1 µM): > 7.50
- pIC50 (second compound 0.316 µM): > 7.50
- pIC50 (second compound 1 µM): > 7.50
- pIC50 (second compound 3.16 µM): > 7.50
- pIC50 (second compound 10 µM): > 7.50
SMILES: CC(=O)OC12COC1CC(O)C1(C)C(=O)C(O)C3=C(C)C(OC(=O)C(O)C(NC(=O)OC(C)(C)C)c4ccccc4)CC(O)(C(OC(=O)c4ccccc4)C21)C3(C)C (centres undefined) + C#Cc1c(F)ccc2cc(O)cc(-c3ncc4c(N5CC6CCC(C5)N6)nc(OCC56CCCN5CC(F)C6)nc4c3F)c12
- viability, T/C [1]: 51%
- viability, T/C [2]: 58%
- viability, T/C [3]: 47.7%
- viability, T/C [4]: 65.3%
- viability, T/C [5]: 71.5%
- viability, T/C [6]: 59.4%
- viability, T/C [7]: 50%
- viability, T/C [8]: 47%
- viability, T/C [9]: 50.4%
- viability, T/C [10]: 55.7%
- viability, T/C [11]: 57%
- viability, T/C [12]: 55.5%
- viability, T/C [13]: 43.4%
- viability, T/C [14]: 41.3%
- viability, T/C [15]: 42.5%
- viability, T/C [16]: 50.1%
- viability, T/C [17]: 47.4%
- viability, T/C [18]: 42.6%
- viability, T/C [19]: 25.7%
- viability, T/C [20]: 31.1%
- viability, T/C [21]: 32.2%
- viability, T/C [22]: 31.9%
- viability, T/C [23]: 28.8%
- viability, T/C [24]: 31%
- viability, T/C (second compound 3.16 µM, first compound 0.0316 µM): 19.6%
- viability, T/C (second compound 3.16 µM, first compound 0.1 µM): 19.2%
- viability, T/C (second compound 3.16 µM, first compound 0.316 µM): 15.8%
- viability, T/C (second compound 3.16 µM, first compound 1 µM): 16.2%
- viability, T/C (second compound 3.16 µM, first compound 3.16 µM): 24.1%
- viability, T/C (second compound 3.16 µM, first compound 10 µM): 18.5%
- viability, T/C (second compound 10 µM, first compound 0.0316 µM): 12.6%
- viability, T/C (second compound 10 µM, first compound 0.1 µM): 11.7%
- viability, T/C (second compound 10 µM, first compound 0.316 µM): 12.4%
- viability, T/C (second compound 10 µM, first compound 1 µM): 13.5%
- viability, T/C (second compound 10 µM, first compound 3.16 µM): 17.4%
- viability, T/C (second compound 10 µM, first compound 10 µM): 13.3%

- pIC50 (second compound 0.00316 µM): < 5.00
- pIC50 (second compound 0.01 µM): < 5.00
- pIC50 (second compound 0.0316 µM): < 5.00
- pIC50 (second compound 0.1 µM): < 5.00
- pIC50 (second compound 0.316 µM): < 5.00
- pIC50 (second compound 1 µM): < 5.00
SMILES: NC1c2ccccc2OC12CCN(c1cnc3c(N4CCCc5ncccc54)n[nH]c3n1)CC2 (centres undefined) + C=CC(=O)N1CCN(c2nc(OCC3CCCN3C)nc3c(F)c(-c4nc(N)cc(C)c4C(F)(F)F)c(Cl)cc23)C(C)C1
- viability, T/C (second compound 0.00316 µM, first compound 0.0316 µM): 69.5%
- viability, T/C (second compound 0.00316 µM, first compound 0.1 µM): 70.1%
- viability, T/C (second compound 0.00316 µM, first compound 0.316 µM): 80.6%
- viability, T/C (second compound 0.00316 µM, first compound 1 µM): 79.7%
- viability, T/C (second compound 0.00316 µM, first compound 3.16 µM): 70.5%
- viability, T/C (second compound 0.00316 µM, first compound 10 µM): 64.6%
- viability, T/C (second compound 0.01 µM, first compound 0.0316 µM): 78.4%
- viability, T/C (second compound 0.01 µM, first compound 0.1 µM): 75.2%
- viability, T/C (second compound 0.01 µM, first compound 0.316 µM): 78.5%
- viability, T/C (second compound 0.01 µM, first compound 1 µM): 89.3%
- viability, T/C (second compound 0.01 µM, first compound 3.16 µM): 68.6%
- viability, T/C (second compound 0.01 µM, first compound 10 µM): 69.9%
- viability, T/C [1]: 76.5%
- viability, T/C [2]: 77.7%
- viability, T/C [3]: 82.5%
- viability, T/C [4]: 67.8%
- viability, T/C [5]: 86.4%
- viability, T/C [6]: 81.6%
- viability, T/C [7]: 97.8%
- viability, T/C [8]: 75%
- viability, T/C [9]: 70.2%
- viability, T/C [10]: 83.2%
- viability, T/C [11]: 76.6%
- viability, T/C [12]: 73.3%
- viability, T/C [13]: 86%
- viability, T/C [14]: 89.8%
- viability, T/C [15]: 84.8%
- viability, T/C [16]: 65.5%
- viability, T/C [17]: 88.2%
- viability, T/C [18]: 73.2%
- viability, T/C [19]: 76.6%
- viability, T/C [20]: 67.2%
- viability, T/C [21]: 87.9%
- viability, T/C [22]: 72.9%
- viability, T/C [23]: 85%
- viability, T/C [24]: 66.3%
